{
  "source": "patent US20130071547A1",
  "about": "“LOW CALORIC FAT REPLACERS” (NESTEC S.A., priority 2009, published 2013)",
  "key": {"[1]": {"target": "T1, GPR40 (Homo sapiens, UniProt O14842)", "T1 construct": "expressed in transfected cells; host or cells: Chem-1 (Chem1) cells stably expressing GPR40", "T1 sequence (O14842 whole entry, species assumed)": "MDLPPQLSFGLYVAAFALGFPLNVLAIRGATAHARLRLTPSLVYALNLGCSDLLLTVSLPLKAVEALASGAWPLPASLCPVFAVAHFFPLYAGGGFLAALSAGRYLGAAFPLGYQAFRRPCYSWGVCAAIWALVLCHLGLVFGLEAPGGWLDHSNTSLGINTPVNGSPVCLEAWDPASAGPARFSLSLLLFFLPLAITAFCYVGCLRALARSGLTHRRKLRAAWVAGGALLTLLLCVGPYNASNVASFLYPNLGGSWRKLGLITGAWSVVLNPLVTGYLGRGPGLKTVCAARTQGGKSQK", "experiment": "Calcium response of Chem-1 cells stably expressing GPR40 (calcium sensitive dye, Flex station)", "type": "cell-based", "source_text": "The calcium response of Chem-1 cells stably expressing GPR40 to increasing concentration of 12-Methyltridecanal is shown.\nTo determine if 12-Methyltridecanal is an agonist of GPR40, Chem1 cells stably expressing GPR40 were loaded with a calcium sensitive dye, stimulated with increasing concentrations of 12-Methyltridecanal, and their calcium response measured using a Flex station."}, "[2]": {"system": "wild type Chem1 cells", "experiment": "Calcium response of wild type Chem1 cells (control cells)", "type": "cell-based"}, "[3]": {"system": "subjects", "experiment": "2-Alternative forced choice test of the fattiness of 12-Methyltridecanal", "type": "in vivo, human", "method": "12-Methyltridecanal was dissolved in 0.5% ethanol in water. Control samples were 0.5% ethanol in water. Three concentrations were tested. For each concentration thirty nine subjects wearing nose clips were presented with one cup containing the compound and one control cup in a random order. The subjects were asked to identify which sample is fattier. The significance level is shown with a solid line.\n2-Alternative forced choice tests were used to test the fattiness of 12-Methyltridecanal. Thirty nine subjects were presented with two cups, one with a solution containing 12-Methyltridecanal and the other vehicle alone. The subjects were wearing nose clips, and were asked which sample is fattier. A significant number of participants found the sample containing the highest concentration of 12-Methyltridecanal fattier (28 out of 39 subjects, p<0.01) (FIG. 5)."}, "[4]": {"system": "subjects", "experiment": "Triangle tests with GPR40 agonists (identify the odd sample)", "type": "in vivo, human", "conditions": "highest concentration tested, 0.5% ethanol in water, nose clips; for participants who correctly identified the odd sample: one compound cup and two control cups; for identification of the sample with the compound as the odd sample (significance): 21 subjects", "method": "The GPR40 agonist (Compound 5 or Compound 20) was dissolved in 0.5% ethanol in water. Control samples were 0.5% ethanol in water. Three concentrations for compound 5 and four concentrations for compound 20 were tested. For each concentration twenty one subjects wearing nose clips were presented with one cup containing the compound and two control cups in a random order. The subjects were asked to identify the odd sample. […] The significance level is shown with a dashed line. * p<0.01, ** p<0.0001\nTriangle tests were used with 21 subjects to determine if solutions containing Compound 5 or Compound 20 taste different from solutions with the same vehicle but without compounds. The subjects, wearing nose clips, were presented with three samples in random order, one containing the agonist, and two control solutions, and were asked to identify the odd sample. Eighteen out of 21 participants correctly identified the highest concentration of compound 5 (p<0.0001), and 13 out of 21 correctly identified the highest concentration of Compound 20 (p<0.01) (FIG. 3)."}, "[5]": {"system": "subjects", "experiment": "Description of the sensory attributes of GPR40 agonists by untrained subjects", "type": "in vivo, human", "conditions": "for SUMMARY of the comments (sensory attributes): eight subjects with nose clips; for sensory attributes described by most participants: 0.5% ethanol solutions, untrained subjects with nose clips; for fatty mouth sensation (overall conclusion of Example 2): conclusion from triangle and descriptive tests", "source_text": "In a different experiment, untrained subjects were asked to describe the sensory attributes of the agonists. The majority of participants described the molecules as creamy, oily, or providing mouth and lip coating (Tables 2 and 3).\nEight subjects wearing nose clips were presented with 0.5% ethanol solutions containing agonists of GPR40 and asked to describe them."}, "[6]": {"target": "T1, GPR40", "conditions": "cited from earlier work"}, "[7]": {"system": "subjects", "experiment": "Descriptive information on taste, texture and after taste of compound 20", "type": "in vivo, human", "conditions": "51.2 μM in 0.5% ethanol, nose clips; for Taste (descriptor: number of subjects): wrapped cell: 'Slightly savoury: 1'; for Texture (descriptor: number of subjects): wrapped cells: 'Slightly viscous: 2', 'Slightly coats the mouth: 2'", "method": "Six subjects wearing nose clips were presented with 0.5% ethanol in water (warm up sample) or 51.2 μM compound 20 in 0.5% ethanol (reference sample). Participants were asked to describe, avoiding hedonic terms, the taste, texture and aftertaste of the reference sample. Five out of 6 subjects found texture attributes compatible with the texture of fat."}, "[8]": {"system": "subjects", "experiment": "2-Alternative forced choice test, which solution tastes fattier (Medica 16, rosiglitazone)", "type": "in vivo, human", "conditions": "agonist solution vs water, 40 subjects, p<0.05", "method": "A correct choice is defined as choosing as fattier the sample containing the test ingredients. Medica 16 and rosiglitazone were assessed independently at three concentration, 10 μM, 50 μM and 100 μM.\nForty subjects were given two solutions one containing the agonist and the other water, and asked which one tastes fattier."}},
  "note": "Entries after “also recorded” stand apart in the source; their conditions may differ. Like-named read-outs stand apart in the source and are kept apart here.",
  "data": [
    {"smiles": "CC(C)CCCCCCCCCCC=O", "note": "[12-Methyltridecanal]", "values": [
      {"measurement": "calcium response to increasing concentrations", "setting": "[1]", "value": "clear dose-dependant response"},
      {"measurement": "calcium response to increasing concentrations", "setting": "[2]", "value": "do not respond; also recorded: did not respond"},
      {"measurement": "fatty taste effect versus control", "setting": "[3]; 10 μM (lowest concentration), 39 subjects, 0.5% ethanol in water, nose clips", "value": "no significant effect"},
      {"measurement": "subjects choosing the sample with the compound as fattier than control (correct choice)", "setting": "[3]; 50 μM, 39 subjects, trend, p<0.05, not significant when taking into consideration multiple testing", "value": 26},
      {"measurement": "subjects choosing the sample with the compound as fattier than control", "setting": "[3]; 100 μM (highest concentration), 39 subjects, 0.5% ethanol in water, nose clips, p<0.0087 (p<0.01)", "value": 28, "unit": "subjects"},
      {"measurement": "fatty mouth sensation (overall conclusion of Example 2)", "setting": "[3]; conclusion from 2-Alternative forced choice test", "value": "impart a fatty mouth sensation"}
    ]},
    {"smiles": "CC#CC(CC(=O)O)c1ccc(OCc2cc(-c3ccccc3)oc2C)cc1", "note": "(stereo not drawn) [Compound 5]", "values": [
      {"measurement": "participants who correctly identified the odd sample", "setting": "[4]", "value": "Eighteen"},
      {"measurement": "identification of the sample with the compound as the odd sample (significance)", "setting": "[4]", "value": "a significant number of subjects were able to identify the sample with the compound as the odd sample"},
      {"measurement": "SUMMARY of the comments (sensory attributes)", "setting": "[5]; 40 μM in 0.5% ethanol, agreement over most participants on mouth coating, creaminess", "value": "Bitter; also recorded: Astringent/tingling; also recorded: Slight mouth coating, Creaminess; also recorded: Persistent"},
      {"measurement": "sensory attributes described by most participants", "setting": "[5]", "value": "agreement from most participants on the creaminess, mouth and lip coating"},
      {"measurement": "fatty mouth sensation (overall conclusion of Example 2)", "setting": "[5]", "value": "impart a fatty mouth sensation"},
      {"measurement": "GPR40 agonist activity", "setting": "[6]; as described in patent WO2005/086661", "value": "GPR40 agonist activity was demonstrated"}
    ]},
    {"smiles": "Cc1ccccc1C#Cc1ccc(CCC(=O)O)cc1", "note": "[Compound 20]", "values": [
      {"measurement": "participants who correctly identified the odd sample", "setting": "[4]", "value": "13 out of 21"},
      {"measurement": "identification of the sample with the compound as the odd sample (significance)", "setting": "[4]", "value": "a significant number of subjects were able to identify the sample with the compound as the odd sample"},
      {"measurement": "subjects who found texture attributes compatible with the texture of fat", "setting": "[7]", "value": "Five"},
      {"measurement": "Others (comments)", "setting": "[7]; six subjects, wrapped cell: 'Slightly burning, hot, at the side of the tongue after spitting out.'", "value": "Slightly burning,"},
      {"measurement": "Taste (descriptor: number of subjects)", "setting": "[7]; six subjects", "value": "Slightly"},
      {"measurement": "Taste (descriptor: number of subjects)", "setting": "[7]; six subjects, no taste noted", "value": "None: 5"},
      {"measurement": "After taste (descriptor: number of subjects)", "setting": "[7]; six subjects, wrapped cells: 'Astringent at the back of the throat', 'Bitter - Very slightly'", "value": "None: 3"},
      {"measurement": "Texture (descriptor: number of subjects)", "setting": "[7]; six subjects", "value": "Slightly"},
      {"measurement": "Texture (descriptor: number of subjects)", "setting": "[7]; six subjects, a bit oily texture", "value": "A bit oily: 1"},
      {"measurement": "Texture (descriptor: number of subjects)", "setting": "[7]; six subjects, greasy texture", "value": "Greasy: 2"},
      {"measurement": "Texture (descriptor: number of subjects)", "setting": "[7]; six subjects, no texture noted", "value": "None: 1"},
      {"measurement": "Texture (descriptor: number of subjects)", "setting": "[7]; six subjects, slightly coats the mouth", "value": "Slightly coats"},
      {"measurement": "Texture (descriptor: number of subjects)", "setting": "[7]; six subjects, waxy texture", "value": "Waxy: 1"},
      {"measurement": "SUMMARY of the comments (sensory attributes)", "setting": "[5]; 51.2 μM in 0.5% ethanol, agreement over most participants on lip coating, creamy", "value": "Coating the lips, creamy; also recorded: Slightly bitter"},
      {"measurement": "sensory attributes described by most participants", "setting": "[5]", "value": "agreement from most participants on the creaminess, mouth and lip coating"},
      {"measurement": "fatty mouth sensation (overall conclusion of Example 2)", "setting": "[5]", "value": "impart a fatty mouth sensation"},
      {"measurement": "GPR40 agonist activity", "setting": "[6]; as described in Christiansen et al, Journal of Medicinal Chemistry, 2008, 51, 7061-7064", "value": "GPR40 agonist activity was demonstrated"}
    ]},
    {"smiles": "CCCCC/C=C\\C/C=C\\CCCCCCCC(=O)O", "note": "[Linoleic acid]", "values": [
      {"measurement": "SUMMARY of the comments (sensory attributes)", "setting": "[5]; 450 μM in 0.5% ethanol, r7 continues in r8 ('texture.')", "value": "Astringent. Pungent; also recorded: Some mentions on creamy, viscous"}
    ]},
    {"smiles": "CC(C)(CCCCCCCCCCC(C)(C)CC(=O)O)CC(=O)O", "note": "[Medica 16]", "values": [
      {"measurement": "sample with agonist chosen as tasting fattier than control", "setting": "[8]; 50 μM", "value": "significantly chosen as fattier than control solution; also recorded: more subjects found the solution with agonists to taste fattier"},
      {"measurement": "sample with agonist chosen as tasting fattier than control", "setting": "[8]; 100 μM", "value": "significantly chosen as fattier than control solution; also recorded: more subjects found the solution with agonists to taste fattier"}
    ]},
    {"smiles": "CN(CCOc1ccc(CC2SC(=O)NC2=O)cc1)c1ccccn1", "note": "(stereo not drawn) [Roziglitazone]", "values": [
      {"measurement": "sample with agonist chosen as tasting fattier than control", "setting": "[8]; 50 μM", "value": "more subjects found the solution with agonists to taste fattier"},
      {"measurement": "sample with agonist chosen as tasting fattier than control", "setting": "[8]; 50 μM, listed as rosiglitazone", "value": "significantly chosen as fattier than control solution"},
      {"measurement": "sample with agonist chosen as tasting fattier than control", "setting": "[8]; 100 μM", "value": "more subjects found the solution with agonists to taste fattier"},
      {"measurement": "sample with agonist chosen as tasting fattier than control", "setting": "[8]; 100 μM, listed as rosiglitazone", "value": "significantly chosen as fattier than control solution"}
    ]}
  ]
}
